Data on 13 molecules can be found in ChEMBL document CHEMBL1201862, “PubChem BioAssay data set” (2004).

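Five compound concentrations were applied to cells in 96-well plates for 48 hours; endpoints were derived by simple linear interpolation of the resulting dose-response curve. GI50 marks 50% less growth.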 Calls of active or inactive are those of the source. Cut-off read from the data, not from the text of the source: active = GI50 up to about 1.1 µM and inactive = higher. Some results are limits rather than exact numbers.

Among the test systems are SNB-75; RXF 393; LOX IMVI; DMS-273; U-251; CAKI-1; COLO 205; A498; SNB-19; OVCAR-4; M14; NCI-H522; SR; SK-MEL-28; K562; IGROV-1.
What all share (experiment): NCI tumour cell line growth inhibition, 48 h

`O=c1[nH]n2c(=O)cc[nH]c2c1-c1nnns1`: the GI50 in the assay with SNB-75, with RXF 393, with LOX IMVI, in the assay on DMS-273, in the assay with U-251 and with CAKI-1 was > 100 µM (inactive) each time. For the same molecule, the GI50 with COLO 205, in the assay with A498, in the assay on SNB-19, in the assay with OVCAR-4, in the assay with M14 and in the assay on NCI-H522 was > 100 µM (inactive) throughout. Also, the GI50 in the assay with SR, in the assay on SK-MEL-28, in the assay on K562 and in the assay with IGROV-1 was > 100 µM (inactive) throughout.

In the case of `CC(C)N(C(=O)C12C3C4C5C3C1(C(=O)N(C(C)C)C(C)C)C5(C#N)C42)C(C)C` (stereo not drawn), the GI50 with SNB-75 was > 100 µM (inactive); with LOX IMVI, 20.8 µM (inactive); with DMS-273, 45.8 µM (inactive); in the assay on U-251, > 100 µM (inactive); in the assay with CAKI-1, > 100 µM (inactive); in the assay with COLO 205 it was 40.5 µM (inactive). Further, the GI50 with A498 was > 100 µM (inactive); with SNB-19, > 100 µM (inactive); in the assay on OVCAR-4, > 100 µM (inactive); in the assay with M14 it was > 100 µM (inactive); in the assay on NCI-H522, > 100 µM (inactive); in the assay with SR, 17.9 µM (inactive). The GI50 with SK-MEL-28 was > 100 µM (inactive); in the assay with K562, 33.7 µM (inactive); in the assay on IGROV-1, > 100 µM (inactive).

Consider `COc1cc2c(cc1O)CCN[C@@]21CS[C@H]2c3c(OC(C)=O)c(C)c4c(c3C(COC1=O)N1C2C2NC(Cc3cc(C)c(OC)c(O)c32)[C@@H]1C#N)OCO4` (stereo partly drawn), for which the GI50 in the assay with SNB-75, in the assay on RXF 393, in the assay with LOX IMVI, with DMS-273, in the assay with U-251 and with COLO 205 was < 0.01 µM (active) each time. Further, the GI50 in the assay with A498, in the assay on SNB-19, in the assay with OVCAR-4, with M14, in the assay on SR and in the assay with SK-MEL-28 was < 0.01 µM (active) each time. Besides, the GI50 with K562 and in the assay with IGROV-1 was < 0.01 µM (active) each time.

With `O=C1C(c2ccc([N+](=O)[O-])cc2)=[N+]([O-])c2ccc([N+](=O)[O-])cc21`, the GI50 in the assay on SNB-75 was 62.1 µM (inactive); with RXF 393 it was 56.4 µM (inactive); with LOX IMVI it was 46.5 µM (inactive); with DMS-273, 69.7 µM (inactive); in the assay on U-251, 49.9 µM (inactive); in the assay with COLO 205, 35.3 µM (inactive). For the same molecule, the GI50 in the assay on SNB-19 is 98.6 µM (inactive); in the assay on OVCAR-4, 28.1 µM (inactive); in the assay on M14, 96.2 µM (inactive); in the assay on SR it was 35.1 µM (inactive); with SK-MEL-28, > 100 µM (inactive); in the assay on K562 it was 27.7 µM (inactive). The GI50 in the assay on IGROV-1 is 26.4 µM (inactive).

Take `C=C1CCC2C(C)(CO)C(O)CCC2(C)C1CC(O)C1=CCOC1=O` (stereo not drawn): the GI50 was 46.9 µM (inactive) in the assay with SNB-75; 33.5 µM (inactive) in the assay on LOX IMVI; > 100 µM (inactive) in the assay with DMS-273; 17.3 µM (inactive) with U-251; 78 µM (inactive) with CAKI-1; 38.5 µM (inactive) in the assay on COLO 205. Besides, the GI50 with A498 was > 100 µM (inactive); in the assay on SNB-19, > 100 µM (inactive); in the assay with OVCAR-4, 61.1 µM (inactive); with M14, 47.3 µM (inactive); in the assay with NCI-H522, 5.36 µM (inactive); in the assay on SR it was 18 µM (inactive). In addition, the values for the GI50 in the assay with SK-MEL-28, in the assay with K562 and in the assay on IGROV-1 were > 100 µM (inactive), 34.1 µM (inactive) and 61.1 µM (inactive), respectively.

Consider `COC(=O)C(=O)C(C(=O)C(=O)Nc1ccccc1C(N)=O)c1nc2ccc(C(=O)c3ccccc3)cc2nc1O` (stereo not drawn), for which the GI50 in the assay on RXF 393 is 80.2 µM (inactive); in the assay on DMS-273 it was 62.8 µM (inactive); in the assay with U-251, > 100 µM (inactive); in the assay on CAKI-1, 25.9 µM (inactive); in the assay on COLO 205, > 100 µM (inactive); with A498, 45 µM (inactive). The GI50 with SNB-19 is > 100 µM (inactive); with OVCAR-4 it was > 100 µM (inactive); with M14, > 100 µM (inactive); in the assay with NCI-H522, 23.5 µM (inactive); in the assay on SR, 68.1 µM (inactive); with SK-MEL-28 it was > 100 µM (inactive). Also, the GI50 is 42.6 µM (inactive) with K562 and > 100 µM (inactive) in the assay with IGROV-1.

Turning to `NCC1(N2CCOCC2)C2CCCC21CO` (stereo not drawn), the GI50 in the assay with SNB-75, in the assay on RXF 393, in the assay with DMS-273, with U-251, in the assay with CAKI-1 and with COLO 205 was > 100 µM (inactive) each time. The GI50 in the assay with SNB-19, in the assay on OVCAR-4, with M14, in the assay with NCI-H522, with SR and with SK-MEL-28 was > 100 µM (inactive) throughout. Further, the GI50 in the assay with K562 and in the assay on IGROV-1 was > 100 µM (inactive) in each case.

Take `CCCC/C=C/C1Cc2ccccc2CN1S(=O)(=O)c1ccc(C)cc1` (stereo not drawn): the GI50 with SNB-75 was 13.3 µM (inactive); in the assay with RXF 393, 10.8 µM (inactive); in the assay with LOX IMVI it was 8.34 µM (inactive); in the assay with DMS-273, 7.71 µM (inactive); with U-251, 11.2 µM (inactive); in the assay with COLO 205, 7.29 µM (inactive). The GI50 with SNB-19 was 24.2 µM (inactive); in the assay on OVCAR-4, 5.85 µM (inactive); with M14, 11.4 µM (inactive); in the assay with NCI-H522, 4.31 µM (inactive); with SR, 2.77 µM (inactive); in the assay on SK-MEL-28 it was 10.5 µM (inactive). For the same molecule, the figures for the GI50 in the assay with K562 and with IGROV-1 were 3.64 µM (inactive) and 12.3 µM (inactive), respectively.

For `c1ccc(N2N=NC3C4CC(C5c6ccccc6C45)C32)cc1` (stereo not drawn), the GI50 in the assay on SNB-75 was 35.7 µM (inactive); in the assay with RXF 393, 15.4 µM (inactive); with LOX IMVI it was 18.8 µM (inactive); in the assay on DMS-273 it was 47.1 µM (inactive); in the assay with U-251, 32.5 µM (inactive); with CAKI-1 it was 31 µM (inactive). Besides, the GI50 in the assay on COLO 205 was 41.4 µM (inactive); with A498 it was 39.1 µM (inactive); in the assay on SNB-19, 69.5 µM (inactive); in the assay on OVCAR-4, 27.3 µM (inactive); with M14 it was 54.1 µM (inactive); in the assay on NCI-H522 it was 20.5 µM (inactive). Also, the GI50 with SR is 20.2 µM (inactive); with K562, 36.1 µM (inactive); with IGROV-1 it was 56.8 µM (inactive).

Consider `O=C(OCCOCBr)c1ccccc1`, for which the GI50 in the assay with SNB-75, with LOX IMVI, in the assay on DMS-273, with U-251, with CAKI-1 and with COLO 205 was > 100 µM (inactive) throughout. The GI50 in the assay with A498, with SNB-19, in the assay on OVCAR-4, in the assay on M14, with NCI-H522 and with SR was > 100 µM (inactive) throughout. The GI50 in the assay with SK-MEL-28, in the assay on K562 and in the assay with IGROV-1 was > 100 µM (inactive) in each case.

As to `COc1cccc(NC(=O)CSc2nnc(-c3ccc(/N=C\c4ccc(Cl)cc4)cc3)o2)c1`, the GI50 with SNB-75 is 23.8 µM (inactive); in the assay with RXF 393 it was 18.3 µM (inactive); with LOX IMVI, 20.2 µM (inactive); in the assay with DMS-273 it was > 10 µM (inactive); with U-251 it was 17.1 µM (inactive); in the assay with COLO 205 it was 19.4 µM (inactive). Further, the GI50 in the assay on SNB-19 is 19.5 µM (inactive); in the assay with OVCAR-4, 37.4 µM (inactive); with M14, 19.4 µM (inactive); in the assay on NCI-H522, 15.6 µM (inactive); in the assay with SR, 28.2 µM (inactive); in the assay on SK-MEL-28, 18.3 µM (inactive). Besides, the GI50 in the assay on K562 was 32.6 µM (inactive).

For `COc1cc(C(Cc2ccccc2)NC(C)=O)oc(=O)c1` (stereo not drawn), the GI50 in the assay on SNB-75 is 25 µM (inactive); in the assay on RXF 393 it was > 100 µM (inactive); with LOX IMVI, > 100 µM (inactive); in the assay on DMS-273 it was > 100 µM (inactive); in the assay on U-251 it was > 100 µM (inactive); with CAKI-1, > 100 µM (inactive). In addition, the GI50 with COLO 205, in the assay on A498, in the assay with SNB-19, with OVCAR-4, in the assay on M14 and in the assay on NCI-H522 was > 100 µM (inactive) in each case. Further, the GI50 in the assay on SK-MEL-28, in the assay on K562 and in the assay with IGROV-1 was > 100 µM (inactive) in each case.

As to `COC(=O)/C([Se]c1c(C)cc(C)cc1C)=C(\[Se]c1c(C)cc(C)cc1C)C(=O)OC`, the GI50 with SNB-75, in the assay on RXF 393, in the assay on LOX IMVI, in the assay with DMS-273, with U-251 and in the assay on CAKI-1 was > 100 µM (inactive) throughout. Moreover, the GI50 in the assay with COLO 205, with A498, with SNB-19, with OVCAR-4, in the assay with M14 and with NCI-H522 was > 100 µM (inactive) each time. Also, the GI50 with SR, with K562 and in the assay with IGROV-1 was > 100 µM (inactive) each time.
